Two molecules from US20140343097A1, “5-(2-1-HYDROXYETHYL)-8-HYDROXYQUINOLIN-2(1H)-ONE FOR THE TREATMENT OF LUNG FUNCTION” (ALMIRALL, S.A., priority 2009, published 2014) can be followed below.

Each structure is given as a SMILES string.

This assay concerns men with mild to moderate persistent asthma (lung function, FEV1). The assay is described as follows: Clinical Phase II cross-over study: FEV1 by spirometry after single inhaled doses in asthma patients. It counts as in vivo, human. The conditions noted are these: for Peak FEV1 / Peak FEV1 increase over baseline / Peak FEV1 increase over placebo / Trough FEV1 / Trough FEV1 increase over baseline / Trough FEV1 increase over placebo: average, compound single dose 25 mcg, salmeterol 50 mcg at 0 and 12 hours; for Peak FEV1: inhalation by dry powder inhaler; for Peak FEV1 increase over baseline / Peak FEV1 increase over placebo / Trough FEV1 / Trough FEV1 increase over baseline / Trough FEV1 increase over placebo: inhalation. From the text: Clinical Phase II study: A randomised double-blind, double-dummy, placebo and active comparator-controlled, cross-over trial assesses the activity, safety, tolerability and pharmacokinetics of single doses of 5-(2-{[6-(2,2-difluoro-2-phenylethoxy)hexyl]amino}-1-(R)-hydroxyethyl)-8-hydroxyquinolin-2(1H)-one heminapadisylate by inhalation in asthma patients.
Methods: Men with a diagnosis of mild to moderate persistent asthma, as defined by the 2006 GINA guideline, for at least 6 months prior to screening and with a FEV1 61-85% of the predicted normal values (according to Quanjer et al. 1993) were randomised to treatment sequences comprising a single-dose administration of 5-(2-{[6-(2,2-difluoro-2-phenylethoxy)hexyl]amino}-1-(R)-hydroxyethyl)-8-hydroxyquinolin-2(1H)-one heminapadisylate (at a metered nominal dose of 25 micrograms in the Cyclohaler® device), two administrations (at time points 0 and 12 hours) of Salmeterol (at a metered nominal dose of 50 micrograms in the Cyclohaler® device) and placebo administered all of them by means of a dry powder inhaler. Lung function measurements included (by spirometry) FEV1, PEF, FVC, FEF25-75, and (by body plethysmography) sGaw and Raw.
Results: 25 males (aged 18 to 70) took part in the study.

[1] abbreviates: 25 micrograms single inhaled dose.

In the case of `OCc1cc(C(O)CNCCCCCCOCCCCc2ccccc2)ccc1O` (stereo not shown) [Salmeterol, 2-(hydroxymethyl)-4-{1-hydroxy-2-[6-(4-phenylbutoxy)hexylamino]ethyl}phenol, reference compound], the “Peak FEV1” value is 3.521 L, the “Peak FEV1 increase over baseline” value is on record as 667 mL, the “Peak FEV1 increase over placebo” value worked out at 442 mL and the “Trough FEV1” value was found to be 3.209 L. For the same molecule, the “Trough FEV1 increase over baseline” value is 355 mL and the “Trough FEV1 increase over placebo” value is 285 mL.
Take `O=c1ccc2c([C@@H](O)CNCCCCCCOCC(F)(F)c3ccccc3)ccc(O)c2[nH]1` [5-(2-{[6-(2,2-difluoro-2-phenylethoxy)hexyl]amino}-1-(R)-hydroxyethyl)-8-hydroxyquinolin-2(1H)-one]: the “Peak FEV1” value worked out at 3.819 L, the “Peak FEV1 increase over baseline” value turned out to be 843 mL, the “Peak FEV1 increase over placebo” value is on record as 618 mL and the “Trough FEV1” value is listed as 3.642 L. Further, the “Trough FEV1 increase over baseline” value stood at 666 mL and the “Trough FEV1 increase over placebo” value is 718 mL. Further, under setting [1], the “average peak and trough FEV1 compared with placebo and with salmeterol” value was “clearly increased”; the “increase in average trough FEV1 compared to salmeterol (two doses)” value is “statistically significant”. Further, under “single dose 25 micrograms”, the “FEV1 values compared with salmeterol” value is given as “significantly higher than those produced by salmeterol”; the “bronchodilation: size, duration and onset” value was “surprisingly large, long-lasting bronchodilation, with a fast onset”.
